Measurements from article PMC3920638, “The Development of Selective Inhibitors of NagZ: Increased Susceptibility of Gram-Negative Bacteria to β-Lactams” (Chembiochem, 2013).
≈ marks a conversion by molar mass, not a printed value. Where two headings read alike, the source gives them in different places.

How the values were obtained:
β-hexosaminidase B = target: T1, β-hexosaminidase B (Homo sapiens, UniProt P07686); assay: Kinetic analysis of inhibitors against β-hexosaminidase B; type: biochemical
T1 sequence (P07686 122-556): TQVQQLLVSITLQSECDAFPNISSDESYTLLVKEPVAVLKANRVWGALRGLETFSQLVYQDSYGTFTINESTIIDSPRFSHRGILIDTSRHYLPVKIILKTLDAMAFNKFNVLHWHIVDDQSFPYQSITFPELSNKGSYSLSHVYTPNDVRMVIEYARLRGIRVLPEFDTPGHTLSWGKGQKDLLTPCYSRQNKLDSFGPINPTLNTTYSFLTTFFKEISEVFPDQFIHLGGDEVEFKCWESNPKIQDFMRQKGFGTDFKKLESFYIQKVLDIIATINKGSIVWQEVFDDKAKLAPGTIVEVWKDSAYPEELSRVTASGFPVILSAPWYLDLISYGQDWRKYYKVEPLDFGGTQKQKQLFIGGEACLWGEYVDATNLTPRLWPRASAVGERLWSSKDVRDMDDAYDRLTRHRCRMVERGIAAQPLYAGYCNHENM
Method: (§1) Kinetic analysis of inhibitors: Assays against O-GlcNAcase, VcNagZ and StNagZ were performed in NaPi buffer (50 mM, NaCl (100 mM), pH 6.5) and for β-hexosaminidase B citrate buffer (50 mM, NaCl (100 mM), pH 4.25) using 4-methylumbelliferyl N-acetyl-β-D-glucosaminide as substrate. For NAGLU, assays were performed in acetate buffer (100 mM, pH 4.3), containing bovine serum albumin (0.5 mgmL^−1) using 4-methylumbelliferyl N-acetyl-α-D-glucosaminide as substrate. Release of 4-methylumbelliferone was monitored continuously using a fluorimeter plate reader for OGA, VcNagZ and StNagZ, and a 30 min stopped-assay procedure was used for β-hexosaminidase B and NAGLU (quenched with fourfold excess of quenching buffer, glycine (200 mM), pH 10.75). For OGA, the inhibitors were preincubated with the enzyme for 10 min before the addition of the substrate. Readings were taken at excitation and emission wavelengths of 368 nm and 450 nm respectively. […] Inhibitors were added at a range of concentrations encompassing their Ki values. The rates at each inhibitor concentration were plotted and the best fit line through the points ascertained. The −1/Ki was taken as the point where the line of best fit intersected with 1/Vmax.

NAGLU [1] = target: T2, NAGLU (Homo sapiens, UniProt P54802); assay: Kinetic analysis of inhibitors against NAGLU; type: biochemical
T2 sequence (P54802 24-743): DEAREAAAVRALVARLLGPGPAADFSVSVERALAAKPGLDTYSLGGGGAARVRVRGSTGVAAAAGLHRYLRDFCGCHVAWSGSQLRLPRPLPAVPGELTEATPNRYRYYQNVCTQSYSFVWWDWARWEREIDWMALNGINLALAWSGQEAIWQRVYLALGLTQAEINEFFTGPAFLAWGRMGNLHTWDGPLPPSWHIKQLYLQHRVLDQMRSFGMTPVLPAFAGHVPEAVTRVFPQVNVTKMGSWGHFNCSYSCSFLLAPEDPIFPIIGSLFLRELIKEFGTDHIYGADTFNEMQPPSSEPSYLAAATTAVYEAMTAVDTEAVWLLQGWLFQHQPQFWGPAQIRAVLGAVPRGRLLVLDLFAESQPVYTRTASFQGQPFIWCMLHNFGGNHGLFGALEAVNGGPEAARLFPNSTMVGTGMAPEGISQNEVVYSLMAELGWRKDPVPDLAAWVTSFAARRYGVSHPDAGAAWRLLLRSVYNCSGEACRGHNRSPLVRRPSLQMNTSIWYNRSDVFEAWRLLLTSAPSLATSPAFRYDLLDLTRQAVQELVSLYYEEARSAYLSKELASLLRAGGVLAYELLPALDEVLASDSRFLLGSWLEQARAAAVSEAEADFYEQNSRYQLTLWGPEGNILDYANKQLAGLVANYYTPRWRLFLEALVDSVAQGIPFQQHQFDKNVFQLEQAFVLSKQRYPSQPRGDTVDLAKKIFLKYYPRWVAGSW
Method: as §1

StNagZ = target: T3, StNagZ (Salmonella typhimurium, UniProt Q8ZQ06); assay: Kinetic analysis of inhibitors against StNagZ; type: biochemical; conditions: for S.R. (Ki OGA/Ki StNagZ): selectivity ratio
T3 construct: made in house

O-GlcNAcase (OGA) = target: T4, O-GlcNAcase (OGA) (Homo sapiens, UniProt O60502); assay: Kinetic analysis of inhibitors against O-GlcNAcase; type: biochemical
T4 sequence (O60502 1-916): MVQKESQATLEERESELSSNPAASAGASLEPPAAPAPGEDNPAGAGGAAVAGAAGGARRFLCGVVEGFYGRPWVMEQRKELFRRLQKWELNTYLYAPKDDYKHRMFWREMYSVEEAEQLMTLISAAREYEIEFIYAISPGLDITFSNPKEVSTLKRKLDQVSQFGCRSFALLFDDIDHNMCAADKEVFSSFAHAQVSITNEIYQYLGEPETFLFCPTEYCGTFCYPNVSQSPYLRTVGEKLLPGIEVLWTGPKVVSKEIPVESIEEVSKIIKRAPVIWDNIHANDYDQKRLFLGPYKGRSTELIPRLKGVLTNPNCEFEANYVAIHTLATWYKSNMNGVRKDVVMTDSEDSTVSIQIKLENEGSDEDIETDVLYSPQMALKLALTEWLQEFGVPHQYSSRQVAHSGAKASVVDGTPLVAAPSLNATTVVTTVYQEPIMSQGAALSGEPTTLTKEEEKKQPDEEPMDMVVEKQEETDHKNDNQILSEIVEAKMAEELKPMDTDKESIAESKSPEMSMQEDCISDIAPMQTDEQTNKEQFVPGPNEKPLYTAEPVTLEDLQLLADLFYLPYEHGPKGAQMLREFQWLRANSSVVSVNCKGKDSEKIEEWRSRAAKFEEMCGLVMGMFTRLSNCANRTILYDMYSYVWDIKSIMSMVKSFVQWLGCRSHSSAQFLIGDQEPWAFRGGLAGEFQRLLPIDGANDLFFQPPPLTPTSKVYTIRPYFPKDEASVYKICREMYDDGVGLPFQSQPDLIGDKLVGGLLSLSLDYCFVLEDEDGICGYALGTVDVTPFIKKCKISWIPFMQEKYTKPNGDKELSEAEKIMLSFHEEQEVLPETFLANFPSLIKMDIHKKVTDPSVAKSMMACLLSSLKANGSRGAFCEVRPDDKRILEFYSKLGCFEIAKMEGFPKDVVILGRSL
Method: as §1

VcNagZ = target: T5, VcNagZ (Vibrio cholerae serotype O1, UniProt Q9KU37); assay: Kinetic analysis of inhibitors against VcNagZ; type: biochemical; conditions: for S.R. (Ki OGA/Ki VcNagZ): selectivity ratio
T5 sequence (Q9KU37 1-330): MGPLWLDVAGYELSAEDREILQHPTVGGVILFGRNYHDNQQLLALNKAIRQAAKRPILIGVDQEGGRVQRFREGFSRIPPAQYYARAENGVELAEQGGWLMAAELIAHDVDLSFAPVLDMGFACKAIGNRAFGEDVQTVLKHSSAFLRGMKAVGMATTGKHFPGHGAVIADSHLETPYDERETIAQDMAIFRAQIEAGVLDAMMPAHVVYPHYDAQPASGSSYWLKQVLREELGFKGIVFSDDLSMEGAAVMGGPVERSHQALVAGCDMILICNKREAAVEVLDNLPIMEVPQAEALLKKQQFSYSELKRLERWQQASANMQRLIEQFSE
Method: as §1

P. aeruginosa PA01 [2] = assay: Minimal inhibitory concentration of β-lactams by serial dilution; conditions: Pseudomonas aeruginosa, PA01, 18 h, standard serial dilution, 18 h at 37°C
Method: Determination of the Minimal Inhibitory Concentration of β-lactams: Cultures were prepared by inoculating Mueller–Hinton broth (5 mL) with a small amount of a glycerol stock of P. aeruginosa PA01 and then were grown at 37°C to an OD600 value of ≈0.5. 96-well plates containing a range of concentrations of β-lactams varying by factors of 2 were prepared. […] These broths were inoculated with the culture (100 μL) and allowed to incubate at 37°C for 18 h. […] All MIC determinations were performed in triplicate.

P. aeruginosa PA01 [3] = assay: Agar diffusion test; type: cell-based, Pseudomonas aeruginosa; conditions: 6 mm filter disks loaded with 30 μg of antibiotic, incubation overnight
NAGLU [4] = target: T2, NAGLU; parameters: method as in PMID 10833408; conditions: read-out: NAGLU Ki; literature value; cited from earlier work
P. aeruginosa PA01 [5] = assay: Control: 21 alone as inhibitor of bacterial growth; type: cell-based, Pseudomonas aeruginosa; conditions: up to 1 mM (data not shown)
Description: . […] Of note is that the concentration of 21 required to give rise to the increased susceptibility observed is fivefold less than the concentration of the PUGNAc analogue O-(2-deoxy-2-N-2-ethylbutyryl-D-glucopyranosylidene)amino N-phenylcarbamate (EtBuPUG) used previously to induce a similar effect.[23]

[6] = +21 (20 μL of 1 mM in H2O per well)

Compound CC(C)C(=O)N[C@H]1CN[C@H](CO)[C@@H](O)[C@@H]1O [Compound 24, 1,5-Imino-2-isobutamido-1,2,5-trideoxy-D-glucitol] has a Ki (β-hexosaminidase B) of 670 µM, a Ki (NAGLU [1]) of 800 µM and a Ki (StNagZ) of 24.6 µM. For the same compound, the “S.R. (Ki OGA/Ki StNagZ)” value (StNagZ) was >40, the Ki (O-GlcNAcase (OGA)) was > 1000 µM and the Ki (VcNagZ) was 15.8 µM.
For CCCCCC(=O)N[C@H]1CN[C@H](CO)[C@@H](O)[C@@H]1O [Compound 23, 2-Hexamido-1,5-imino-1,2,5-trideoxy-D-glucitol], the Ki (β-hexosaminidase B) was > 5000 µM, the Ki (NAGLU [1]) was > 1000 µM and the Ki (StNagZ) was 102 µM. For the same compound, the “S.R. (Ki OGA/Ki StNagZ)” value (StNagZ) was >10, the Ki (O-GlcNAcase (OGA)) was > 1000 µM and the Ki (VcNagZ) was 1130 µM. For the same compound, the “S.R. (Ki OGA/Ki VcNagZ)” value (VcNagZ) was >0.9.
CC1(C)S[C@@H]2[C@H](NC(=O)[C@H](N)c3ccccc3)C(=O)N2[C@H]1C(=O)O [Ampicillin, ampicillin] showed an MIC (P. aeruginosa PA01 [2]; [6]) of 128 µg/mL (≈ 366 µM) and an MIC (P. aeruginosa PA01 [2]; −21) of 512 µg/mL (≈ 1470 µM).
Compound CC(C)(O/N=C(\C(=O)N[C@@H]1C(=O)N2C(C(=O)[O-])=C(C[n+]3ccccc3)CS[C@H]12)c1csc(N)n1)C(=O)O [Ceftazidime, ceftazidime] has a Clearing radius (P. aeruginosa PA01 [3]; +21) of 14.3 mm, a Clearing radius (P. aeruginosa PA01 [3]; −21) of 12.2 mm and an MIC (P. aeruginosa PA01 [2]; [6]) of 0.5 µg/mL (≈ 0.915 µM). It also gave an MIC (P. aeruginosa PA01 [2]; −21) of 2 µg/mL (≈ 3.66 µM).
CCC(=O)N[C@H]1CN[C@H](CO)[C@@H](O)[C@@H]1O [Compound 20, 1,5-Imino-2-propamido-1,2,5-trideoxy-D-glucitol] gave a Ki (β-hexosaminidase B) of 61 µM, a Ki (NAGLU [1]) of 96 µM and a Ki (StNagZ) of 45.4 µM. For the same compound, the “S.R. (Ki OGA/Ki StNagZ)” value (StNagZ) was 2.9, the Ki (O-GlcNAcase (OGA)) was 130 µM and the Ki (VcNagZ) was 4.2 µM. The “S.R. (Ki OGA/Ki VcNagZ)” value (VcNagZ) was 31.
Compound C[C@H]1[C@H](NC(=O)/C(=N\OC(C)(C)C(=O)O)c2csc(N)n2)C(=O)N1S(=O)(=O)O [Aztreonam, aztreonam] has an MIC (P. aeruginosa PA01 [2]; [6]) of 0.5 µg/mL (≈ 1.15 µM) and an MIC (P. aeruginosa PA01 [2]; −21) of 1 µg/mL (≈ 2.3 µM).
With CO[C@@]1(NC(=O)Cc2cccs2)C(=O)N2C(C(=O)O)=C(COC(N)=O)CS[C@@H]21 [Cefoxitin, cefoxitin] the MIC (P. aeruginosa PA01 [2]; [6]) was 512 µg/mL (≈ 1200 µM) and the MIC (P. aeruginosa PA01 [2]; −21) was 2050 µg/mL (≈ 4790 µM).
With CCCCC(=O)N[C@H]1CN[C@H](CO)[C@@H](O)[C@@H]1O [Compound 22, 1,5-Imino-1,2,5-trideoxy-2-valeramido-D-glucitol] the Ki (β-hexosaminidase B) was > 5000 µM, the Ki (NAGLU [1]) was > 1000 µM and the Ki (StNagZ) was 47.3 µM. The “S.R. (Ki OGA/Ki StNagZ)” value (StNagZ) was >21, the Ki (O-GlcNAcase (OGA)) was > 1000 µM and the Ki (VcNagZ) was 110 µM. The “S.R. (Ki OGA/Ki VcNagZ)” value (VcNagZ) was >9.
In the case of CC(=O)N[C@H]1CN[C@H](CO)[C@@H](O)[C@@H]1O [Compound 1, 2-Acetamido-1,5-imino-1,2,5-trideoxy-D-glucitol], the Ki (NAGLU [4]) is given as 0.45 µM, the Ki (StNagZ) is given as 25.2 µM and the “S.R. (Ki OGA/Ki StNagZ)” value (StNagZ) is given as 0.94. For the same compound, the Ki (O-GlcNAcase (OGA)) was 23 µM, the Ki (VcNagZ) was 8.5 µM and the “S.R. (Ki OGA/Ki VcNagZ)” value (VcNagZ) was 2.8.
Compound C[C@@H](O)[C@H]1C(=O)N2C(C(=O)O)=C(SCCN=CN)C[C@H]12 [Imipenem, imipenem] has a Clearing radius (P. aeruginosa PA01 [3]; +21) of 13.3 mm, a Clearing radius (P. aeruginosa PA01 [3]; −21) of 11.9 mm and an MIC (P. aeruginosa PA01 [2]; [6]) of 4 µg/mL (≈ 13.4 µM). For the same compound, the MIC (P. aeruginosa PA01 [2]; −21) was 8 µg/mL (≈ 26.7 µM).
In the case of CC(C)CC(=O)N[C@H]1CN[C@H](CO)[C@@H](O)[C@@H]1O [Compound 25, 1,5-Imino-2-isovaleramido-1,2,5-trideoxy-D-glucitol], the Ki (β-hexosaminidase B) is reported as > 5000 µM, the Ki (NAGLU [1]) is reported as > 1000 µM and the Ki (StNagZ) is reported as 294 µM. The “S.R. (Ki OGA/Ki StNagZ)” value (StNagZ) was >3.4, the Ki (O-GlcNAcase (OGA)) was > 1000 µM and the Ki (VcNagZ) was 555 µM. For the same compound, the “S.R. (Ki OGA/Ki VcNagZ)” value (VcNagZ) was >1.8.
For CCCC(=O)N[C@H]1CN[C@H](CO)[C@@H](O)[C@@H]1O [Compound 21, 2-Butamido-1,5-imino-1,2,5-trideoxy-D-glucitol], the Ki (β-hexosaminidase B) was 1460 µM, the Ki (NAGLU [1]) was > 1000 µM and the “S.R. (Ki OGA/Ki StNagZ)” value (StNagZ) was >22. The Ki (O-GlcNAcase (OGA)) was > 500 µM, the Ki (VcNagZ) was 9.4 µM and the “S.R. (Ki OGA/Ki VcNagZ)” value (VcNagZ) was >53. The “effect on bacterial growth rates” value (P. aeruginosa PA01 [5]) was “no differences in growth rates”.
